# Measured values published in patent US20110190215A1, “THERAPEUTIC USE OF PEPTIDES” (priority 2008, published 2011).
# Entries after “also recorded” stand apart in the source; their conditions may differ. Where no end group is shown, it is not given here.
# Experiments:
# leptin = experiment: Proteomic microarray (antibody membrane, chemiluminescence): leptin protein expression in TR146 cells; format: cell-based; settings: TR146 buccal mucosal cells, 2.0 μM peptide, 24 hours, vs mock-treated
# Description: (§1) TR146 buccal mucosal cells, obtained from Cancer Research U.K., were propagated in Dulbecco's modified Eagle medium (DMEM) high glucose (Gibco). The culture medium supplemented with 3.7 mg/ml NaHCO3, 10% FCS, 50 units/ml penicillin G, and […] streptomycin sulphate. Cells were passaged when 90% confluence was reached. The medium was discarded, and cells were washed twice with sterile DPBS (without calcium and magnesium, Cellgro) and 0.25% trypsin-EDTA solution (Gibco) was added. The flask was placed at 37° C. for 10 minutes and then detached cells were suspended in growth medium and seeded in new flasks (dishes micro-well plates).
# For proteomic microarray analysis, cells at 75-80% confluence in T75 flasks were treated with equimolar (2.0 μM) concentrations of a peptide consisting of the sequence FVAPFPEVFGKEKV (SEQ ID NO 2), […] (SEQ ID NO 3), GPVRGPFPI (SEQ ID NO 4), EPVLGPVRGPFPI (SEQ ID NO 5), VPYPQRDMPIQ (SEQ ID NO 6), […] (SEQ ID NO 7), EPVLGPVR (SEQ ID NO 8) and […] (SEQ ID NO 1). Mock-treated cells received same volume of solvent. After 24 hours the cells were washed twice with DPBS, trypsinized, suspended in 5 ml growth media and centrifuged (800 g for 10 minutes). Cells were resuspended in 5 ml DPBS and centrifuged again.
# Antibodies specific to leptin were immobilised on the surface of a membrane. Sample extracts of cell samples each treated with peptides of amino acid sequences SEQ ID NO 1, 2, 3, 4, 5, 6, 7 and 8 were incubated with the membranes. Biotinylated antibodies, specific to leptin-antibody complexes, were then incubated with the membranes. Bound leptin was quantified by measuring chemiluminescence.
# [1] = test system: glutamate decarboxylase 2 (pancreatic islets, lung and brain, 65 kDa); experiment: Microarray gene expression in peptide-treated TR146 cells: glutamate decarboxylase 2 (65 kDa); format: cell-based; settings: TR146 buccal mucosal cells, 2.0 μM peptide, 6 hours, vs mock-treated, Affymetrix Human Genome Focus Array
# Description: as §1
# (§2) For microarray analysis, cells at 75-80% confluence in T75 flasks were treated with equimolar (2.0 μM) concentrations of peptide of SEQ ID NO 5. Mock-treated cells received same volume of solvent. After 6 hours the cells were washed twice with DPBS, trypsinized, suspended in 5 ml growth media and centrifuged (800 g for 10 minutes). Cells were resuspended in 5 ml DPBS and centrifuged again. […]
# (§3) RNA isolation for Microarray Procedure Total RNAs were isolated with an Ambion RNAqueous Kit, and cDNAs were synthesized and purified for Affymetrix GeneChip® Human Genome Focus Array analysis. Raw data were analyzed by the Affymetrix NetAFFX Analysis Center online tools.
# (§4) The nature of change of gene expression profile in response to the peptide was determined. […]
# [2] = test system: gamma-aminobutyric acid A receptor (GABAAR); experiment: Microarray gene expression in peptide-treated TR146 cells: GABA A receptor; format: cell-based; settings: TR146 buccal mucosal cells, 2.0 μM peptide, 6 hours, vs mock-treated, Affymetrix Human Genome Focus Array
# Description: as §1, §2, §3, §4
# [3] = test system: beta 2 gamma-aminobutyric acid receptor, theta; experiment: Microarray gene expression in peptide-treated TR146 cells: beta 2 GABA receptor, theta; format: cell-based; settings: TR146 buccal mucosal cells, 2.0 μM peptide, 6 hours, vs mock-treated, Affymetrix Human Genome Focus Array
# Description: as §1, §2, §3, §4
# rho 2 = experiment: Microarray gene expression in peptide-treated TR146 cells: rho 2; format: cell-based; settings: TR146 buccal mucosal cells, 2.0 μM peptide, 6 hours, vs mock-treated, Affymetrix Human Genome Focus Array
# Description: as §1, §2, §3, §4
# [4] = Body weight of mice on high-fat diet (HFD) co-administered peptides; format: in vivo; settings: for body weight gain compared to control fed with HFD alone: peptide co-administered with HFD for 10 months; for body weight: peptide co-administered with high-fat diet (HFD) for 10 months, HFD control 54.7 g, regular diet 29.8 g
# [5] = test system: Renin (angiotensinogenase); experiment: Microarray gene expression in peptide-treated TR146 cells: renin; format: cell-based; settings: TR146 buccal mucosal cells, 2.0 μM peptide, 6 hours, vs mock-treated, Affymetrix Human Genome Focus Array
# Description: as §1
# (§5) For microarray analysis, cells at 75-80% confluence in T75 flasks were treated with equimolar (2.0 μM) concentrations of peptides. Mock-treated cells received same volume of solvent. After 6 hours the cells were washed twice with DPBS, trypsinized, suspended in 5 ml growth media and centrifuged (800 g for 10 minutes). Cells were resuspended in 5 ml DPBS and centrifuged again. Cell pellets were used for RNA isolation.
# (§6) Total RNAs were isolated with an Ambion RNAqueous Kit, and cDNAs were synthesized and purified for Affymetrix GeneChip® Human Genome Focus Array analysis. Raw data were analyzed by the Affymetrix NetAFFX Analysis Center online tools.
# as §4
# Resistin = experiment: Microarray gene expression in peptide-treated TR146 cells: resistin; format: cell-based; settings: TR146 buccal mucosal cells, 2.0 μM peptide, 6 hours, vs mock-treated, Affymetrix Human Genome Focus Array
# Description: as §1, §5, §6, §4
# Stathmin-1 = experiment: Microarray gene expression in peptide-treated TR146 cells: Stathmin-1; format: cell-based; settings: TR146 buccal mucosal cells, 2.0 μM peptide, 6 hours, vs mock-treated, Affymetrix Human Genome Focus Array
# Description: as §1
# (§7) For microarray analysis, cells at 75-80% confluence in T75 flasks were treated with equimolar (2.0 μM) concentrations of a peptide consisting of the sequence RMPLPPRGCPAAAPWS (SEQ ID NO 10) or […] (SEQ ID NO 1). Mock-treated cells received same volume of solvent. […]
# as §6
# (§8) The nature of change of gene expression profile in response to each of the peptides consisting of the sequence RMPLPPRGCPAAAPWS (SEQ ID NO 10) or […] (SEQ ID NO 1) was determined. […]
# [6] = test system: Amyloid Beta (A4) Precursor Protein (APP); experiment: Microarray gene expression in peptide-treated TR146 cells: APP; format: cell-based; settings: TR146 buccal mucosal cells, 2.0 μM peptide, 6 hours, vs mock-treated, Affymetrix Human Genome Focus Array
# Description: as §1, §7, §6, §8
# [7] = test system: protein-tyrosine phosphatase, receptor-type, F; experiment: Microarray gene expression in peptide-treated TR146 cells: protein-tyrosine phosphatase, receptor-type, F; format: cell-based; settings: TR146 buccal mucosal cells, 2.0 μM peptide, 6 hours, vs mock-treated, Affymetrix Human Genome Focus Array
# Description: as §1, §7, §6, §8
# [8] = test system: glutamate receptor, metabotropic 8; experiment: Microarray gene expression in peptide-treated TR146 cells: metabotropic glutamate receptor 8; format: cell-based; settings: TR146 buccal mucosal cells, 2.0 μM peptide, 6 hours, vs mock-treated, Affymetrix Human Genome Focus Array
# Description: as §1
# (§9) For microarray analysis, cells at 75-80% confluence in T75 flasks were treated with equimolar (2.0 μM) concentrations of a peptide consisting of the sequence […] (SEQ ID NO 1). […]
# as §6
# (§10) The nature of change of gene expression profile in response to the peptide consisting of the sequence […] (SEQ ID NO 1) was determined. […]
# as §8
# [9] = test system: TR146 buccal mucosal cells; experiment: Microarray gene expression profile of peptide-treated TR146 cells (number of genes altered); format: cell-based, human; settings: 2.0 μM peptide, 6 hours
# Description: as §1
# as §5, with “a peptide consisting of the sequence […] (SEQ ID NO 1).” for “peptides.”
# as §6
# The nature of change of gene expression profile in response to the peptide consisting of the sequence […] (SEQ ID NO 1) was determined. Four result files were generated: 1. Molecular networks; 2. Biological functions and diseases; 3. Metabolic-, signalling-, and other molecular pathways; 4. Network node molecule lists. Fischer's exact test was used to calculate a p-value determining the probability that each biological function and/or disease assigned to that data set is due to chance alone.
# [10] = test system: glutamate receptor, ionotropic, N-methyl D-aspartate 2A; experiment: Microarray gene expression in peptide-treated TR146 cells: NMDA 2A glutamate receptor; format: cell-based; settings: TR146 buccal mucosal cells, 2.0 μM peptide, 6 hours, vs mock-treated, Affymetrix Human Genome Focus Array
# Description: as §1, §9, §6, §10, §8
# [11] = test system: Apolipoprotein E (APOE) and receptors; experiment: Microarray gene expression in peptide-treated TR146 cells: APOE and receptors; format: cell-based; settings: TR146 buccal mucosal cells, 2.0 μM peptide, 6 hours, vs mock-treated, Affymetrix Human Genome Focus Array
# Description: as §1, §9, §6, §10, §8
# [12] = test system: brain glutamate decarboxylase 2; experiment: Microarray gene expression in peptide-treated TR146 cells: brain glutamate decarboxylase 2; format: cell-based; settings: TR146 buccal mucosal cells, 2.0 μM peptide, 6 hours, vs mock-treated, Affymetrix Human Genome Focus Array
# Description: as §1, §9, §6, §10, §8
# Bleomycin hydrolase = experiment: Microarray gene expression in peptide-treated TR146 cells: bleomycin hydrolase; format: cell-based; settings: TR146 buccal mucosal cells, 2.0 μM peptide, 6 hours, vs mock-treated, Affymetrix Human Genome Focus Array
# Description: as §1, §9, §6, §10, §8
# [13] = test system: glutamate receptor, metabotropic 7; experiment: Microarray gene expression in peptide-treated TR146 cells: metabotropic glutamate receptor 7; format: cell-based; settings: TR146 buccal mucosal cells, 2.0 μM peptide, 6 hours, vs mock-treated, Affymetrix Human Genome Focus Array
# Description: as §1, §9, §6, §10, §8
sequence,measurement,setting,value
"EPVLGPVR (listed as Ovis sp.) [SEQ ID NO 8, peptide homologous with positions 195-202 of casein beta]",protein expression of leptin,leptin,upregulated
"EPVLGPVRGPFPI (listed as Ovis sp.) [SEQ ID NO 5, peptide homologous with positions 195 to 207 of casein beta]","gene expression of glutamate decarboxylase 2 (pancreatic islets, lung and brain, 65 kDa)",[1],downregulated
same,protein expression of leptin,leptin,upregulated
same,gene expression of gamma-aminobutyric acid A receptor (GABAAR),[2],downregulated
same,"gene expression of beta 2 gamma-aminobutyric acid receptor, theta",[3],downregulated
same,gene expression of rho 2,rho 2,downregulated
"FVAPFPEVFGKEKV (listed as Ovis sp.) [SEQ ID NO 2, peptide homologous with positions 39 to 52 of casein alpha S-1]",protein expression of leptin,leptin,upregulated
same,body weight gain compared to control fed with HFD alone,[4],lower
same,body weight,[4],52.1 g
same,gene expression of renin (angiotensinogenase),[5],down-regulated
same,gene expression of resistin,Resistin,down-regulated
"GPVRGPFPI (listed as Ovis sp.) [SEQ ID NO 4, peptide homologous with positions 199-207 of casein beta]",protein expression of leptin,leptin,upregulated
"RGPFPIIV (listed as Ovis sp.) [SEQ ID NO 9, peptide said to be homologous with positions 202-209 of casein alpha S-1]",body weight gain compared to control fed with HFD alone,[4],lower
same,body weight,[4],51.1 g
RMPLPPRGCPAAAPWS (listed as Ovis sp.) [SEQ ID NO 10],body weight gain compared to control fed with HFD alone,[4],lower
same,body weight,[4],50.1 g
same,gene expression of Stathmin-1,Stathmin-1,upregulated
same,gene expression of Amyloid Beta (A4) Precursor Protein (APP),[6],downregulated
same,"gene expression of protein-tyrosine phosphatase, receptor-type, F",[7],downregulated
RPKHPIKHQGLPQEVLNENLLRF [SEQ ID NO 1],protein expression of leptin,leptin,upregulated
same,"gene expression of glutamate receptor, metabotropic 8",[8],Downregulation; also recorded: down-regulated
same,number of genes down-regulated,[9],296 genes
same,number of genes up-regulated,[9],101 genes
same,number of genes with altered expression,[9]; total altered,~400 genes
same,"gene expression of glutamate receptor, ionotropic, N-methyl D-aspartate 2A",[10],Downregulation; also recorded: down-regulated
same,gene expression of Apolipoprotein E (APOE) and receptors,[11],Downregulation; also recorded: down-regulated
same,gene expression of brain glutamate decarboxylase 2,[12],Downregulation; also recorded: down-regulated
same,gene expression of bleomycin hydrolase,Bleomycin hydrolase,Upregulation; also recorded: upregulated
same,"gene expression of glutamate receptor, metabotropic 7",[13],Downregulation; also recorded: down-regulated
"SDIPNPIGSENSEKTTMPLW (listed as Ovis sp.) [SEQ ID NO 3, peptide homologous with positions 195-214 of casein alpha S-1]",protein expression of leptin,leptin,upregulated
"SLSQSKVLPVPQKAVPYPQRDMPIQ (listed as Ovis sp.) [SEQ ID NO 7, peptide homologous with positions 164-188 of casein beta]",protein expression of leptin,leptin,upregulated
"VPYPQRDMPIQ (listed as Ovis sp.) [SEQ ID NO 6, peptide homologous with positions 178-188 of casein beta]",protein expression of leptin,leptin,upregulated
